The values that follow come from ChEMBL document CHEMBL1152961, “Synthesis and biological evaluation of novel carbon-11 labeled pyridyl ethers: candidate ligands for in vivo imaging of alpha4beta2 nicotinic acetylcholine receptors (alpha4beta2-nAChRs) in the brain with positron emission tomography” (Bioorg Med Chem, 2009).

Data set [1] is described as follows: Drug uptake in baboon brain thalamus assessed as binding potential at 17.5 mCi by bolus injection. The format is ADME, organism-based. The following applies: papio anubis, in vivo, iv.
The nature of data set [2]: Drug uptake in baboon brain thalamus assessed as binding potential at 21 mCi by bolus injection. It is filed as ADME, organism-based. The following applies: papio anubis, in vivo, iv.
Data set [3] is described as follows: Drug uptake in baboon brain thalamus assessed as binding potential at 31 mCi by bolus injection. The following applies: papio anubis, in vivo, iv. It is filed as ADME, organism-based.
Data set [4] deals with Neuronal acetylcholine receptor; alpha4/beta2 (Rattus norvegicus) (UniProt P09483+P12390). Description: Ratio of compound Ki to epibatidine Ki for rat alpha4beta2 nicotinic receptor expressed in human HEK293 cells. It is filed as cell-based.
The target in data set [5] is Neuronal acetylcholine receptor; alpha3/beta2 (Rattus norvegicus, UniProt P04757+P12390). Put plainly: Displacement of [3H]epibatidine from rat alpha3beta2 nicotinic receptor expressed in human HEK293 cells by liquid scintillation counting. It is filed as cell-based. On the technique in general: Loss of bound radioactivity is the signal in a displacement assay; it reports binding, not function.
Sequence of Neuronal acetylcholine receptor; alpha3/beta2 (P04757 whole entry): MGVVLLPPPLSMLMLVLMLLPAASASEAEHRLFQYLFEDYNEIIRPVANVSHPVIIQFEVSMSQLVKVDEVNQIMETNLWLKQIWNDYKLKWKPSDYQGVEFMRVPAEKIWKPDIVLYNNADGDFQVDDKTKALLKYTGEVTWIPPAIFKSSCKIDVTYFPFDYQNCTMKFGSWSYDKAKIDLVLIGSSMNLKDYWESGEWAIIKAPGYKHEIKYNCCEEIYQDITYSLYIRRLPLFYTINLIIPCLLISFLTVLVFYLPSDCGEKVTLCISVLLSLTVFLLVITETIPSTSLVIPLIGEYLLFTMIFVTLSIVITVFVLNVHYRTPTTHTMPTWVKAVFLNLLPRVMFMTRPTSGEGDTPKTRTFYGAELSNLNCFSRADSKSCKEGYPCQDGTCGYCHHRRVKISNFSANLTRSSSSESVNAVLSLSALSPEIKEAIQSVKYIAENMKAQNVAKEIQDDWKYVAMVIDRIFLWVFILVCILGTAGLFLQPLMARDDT
Sequence of Neuronal acetylcholine receptor; alpha3/beta2 (P12390 whole entry): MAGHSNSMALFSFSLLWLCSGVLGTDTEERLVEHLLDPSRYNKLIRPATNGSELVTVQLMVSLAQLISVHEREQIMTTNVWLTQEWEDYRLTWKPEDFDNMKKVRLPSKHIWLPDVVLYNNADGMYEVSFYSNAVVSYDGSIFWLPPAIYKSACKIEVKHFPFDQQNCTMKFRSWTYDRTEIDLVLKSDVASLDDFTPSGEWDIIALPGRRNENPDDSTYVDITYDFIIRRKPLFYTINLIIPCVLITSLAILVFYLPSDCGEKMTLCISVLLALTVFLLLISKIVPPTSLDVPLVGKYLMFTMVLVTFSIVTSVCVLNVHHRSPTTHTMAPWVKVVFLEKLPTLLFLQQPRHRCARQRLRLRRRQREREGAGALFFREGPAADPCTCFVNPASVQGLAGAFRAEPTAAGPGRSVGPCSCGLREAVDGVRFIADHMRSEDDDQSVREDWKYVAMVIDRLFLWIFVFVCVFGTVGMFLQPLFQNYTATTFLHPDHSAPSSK

Data set [6] has as its target Neuronal acetylcholine receptor; alpha2/beta4 (Rattus norvegicus, UniProt P12389+P12392). Description: Displacement of [3H]epibatidine from rat alpha2beta4 nicotinic receptor expressed in human HEK293 cells by liquid scintillation counting. The format is cell-based.
Data set [7] addresses Neuronal acetylcholine receptor subunit alpha-2 (Rattus norvegicus, UniProt P12389+P12390). Put plainly: Displacement of [3H]epibatidine from rat alpha2beta2 nicotinic receptor expressed in human HEK293 cells by liquid scintillation counting. It is filed as cell-based.
Data set [8] deals with Neuronal acetylcholine receptor; alpha3/beta4 (Rattus norvegicus, UniProt P04757+P12392). Description: Displacement of [3H]epibatidine from rat alpha3beta4 nicotinic receptor expressed in human HEK293 cells by liquid scintillation counting. It is filed as cell-based.
Sequence of Neuronal acetylcholine receptor; alpha3/beta4 (P04757 whole entry): as the sequence (P04757 whole entry) above
Sequence of Neuronal acetylcholine receptor; alpha3/beta4 (P12392 whole entry): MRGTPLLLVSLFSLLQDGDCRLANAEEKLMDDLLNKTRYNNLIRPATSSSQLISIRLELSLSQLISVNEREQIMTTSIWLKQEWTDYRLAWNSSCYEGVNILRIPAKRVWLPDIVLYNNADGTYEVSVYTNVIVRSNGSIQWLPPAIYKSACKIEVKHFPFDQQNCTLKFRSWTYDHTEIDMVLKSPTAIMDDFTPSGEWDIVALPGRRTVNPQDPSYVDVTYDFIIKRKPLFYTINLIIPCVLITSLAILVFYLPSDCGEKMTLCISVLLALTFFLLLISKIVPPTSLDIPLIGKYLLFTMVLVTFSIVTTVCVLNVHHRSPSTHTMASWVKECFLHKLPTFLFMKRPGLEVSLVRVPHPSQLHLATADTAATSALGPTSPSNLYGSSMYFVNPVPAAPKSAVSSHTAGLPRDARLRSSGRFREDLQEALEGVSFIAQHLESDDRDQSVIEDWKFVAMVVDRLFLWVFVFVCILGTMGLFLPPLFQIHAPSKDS
The target in data set [9] is T1, Neuronal acetylcholine receptor; alpha4/beta2 (Rattus norvegicus, UniProt P09483+P12390). Put plainly: Displacement of [3H]epibatidine from rat alpha4beta2 nicotinic receptor expressed in human HEK293 cells by liquid scintillation counting. The format is cell-based.
T1 sequence (P09483 whole entry): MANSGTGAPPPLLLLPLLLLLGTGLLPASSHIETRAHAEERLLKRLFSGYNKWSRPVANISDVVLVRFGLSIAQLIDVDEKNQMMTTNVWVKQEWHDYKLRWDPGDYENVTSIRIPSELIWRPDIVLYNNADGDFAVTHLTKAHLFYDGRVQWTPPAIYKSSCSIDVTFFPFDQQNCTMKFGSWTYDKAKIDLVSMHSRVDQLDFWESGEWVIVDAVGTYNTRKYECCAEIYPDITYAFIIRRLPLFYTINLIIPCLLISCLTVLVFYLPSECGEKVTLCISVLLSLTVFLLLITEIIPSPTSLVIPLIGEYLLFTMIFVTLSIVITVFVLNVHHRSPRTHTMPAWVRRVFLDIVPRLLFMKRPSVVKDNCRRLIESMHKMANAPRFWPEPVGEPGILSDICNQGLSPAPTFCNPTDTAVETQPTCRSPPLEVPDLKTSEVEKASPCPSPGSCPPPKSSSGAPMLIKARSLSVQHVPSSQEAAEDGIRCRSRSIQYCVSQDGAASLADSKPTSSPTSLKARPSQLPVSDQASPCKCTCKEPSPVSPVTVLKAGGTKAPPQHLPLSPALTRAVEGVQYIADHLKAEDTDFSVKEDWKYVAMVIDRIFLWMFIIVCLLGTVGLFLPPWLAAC
T1 sequence (P12390 whole entry): as the sequence (P12390 whole entry) above
Data set [10] in a line: Octanol-water partition coefficient, log D at pH 7.4 by shake flask method. It is filed as physicochemical.
Data set [11] concerns the target Neuronal acetylcholine receptor; alpha4/beta4 (Rattus norvegicus, UniProt P09483+P12392). Put plainly: Displacement of [3H]epibatidine from rat alpha4beta4 nicotinic receptor expressed in human HEK293 cells by liquid scintillation counting. The format is cell-based.
The species entered for another data set is Rattus norvegicus. Put plainly: Selectivity ratio of Ki for rat alpha3beta4 nicotinic receptor to Ki for rat alpha4beta2 nicotinic receptor.
Data set [12] in a line: Ratio of drug uptake in thalamus to cerebellum of CD1 mouse at 0.07 mCi, iv after 45 mins. It is filed as ADME, organism-based. The following applies: in vivo, 0.75 h.
The target in data set [13] is T1, Neuronal acetylcholine receptor; alpha4/beta2. Description: Displacement of [125I]5-A-85380 from alpha4beta2 nicotinic receptor in rat brain. It is filed as tissue-based.

Sequence of Neuronal acetylcholine receptor; alpha4/beta4 (P09483 whole entry): as the sequence (P09483 whole entry) above
Sequence of Neuronal acetylcholine receptor; alpha4/beta4 (P12392 whole entry): as the sequence (P12392 whole entry) above
Sequence of Neuronal acetylcholine receptor subunit alpha-2 (P12389 whole entry, one chain of several): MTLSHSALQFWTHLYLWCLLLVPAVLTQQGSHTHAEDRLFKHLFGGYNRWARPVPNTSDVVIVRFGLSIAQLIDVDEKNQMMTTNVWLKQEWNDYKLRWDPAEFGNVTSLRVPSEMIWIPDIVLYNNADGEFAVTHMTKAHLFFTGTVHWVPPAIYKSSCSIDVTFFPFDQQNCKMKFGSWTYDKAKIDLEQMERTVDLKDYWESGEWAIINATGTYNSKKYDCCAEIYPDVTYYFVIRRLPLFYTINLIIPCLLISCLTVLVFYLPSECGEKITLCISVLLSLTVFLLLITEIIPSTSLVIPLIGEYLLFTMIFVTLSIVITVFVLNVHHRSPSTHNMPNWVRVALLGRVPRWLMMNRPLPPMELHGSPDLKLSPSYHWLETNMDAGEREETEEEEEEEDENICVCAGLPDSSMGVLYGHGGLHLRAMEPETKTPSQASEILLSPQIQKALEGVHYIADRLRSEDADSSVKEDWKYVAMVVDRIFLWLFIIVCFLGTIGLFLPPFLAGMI
Sequence of Neuronal acetylcholine receptor; alpha2/beta4 (P12389 whole entry): as the sequence (P12389 whole entry, one chain of several) above
Sequence of Neuronal acetylcholine receptor; alpha2/beta4 (P12392 whole entry): as the sequence (P12392 whole entry) above

As for `[11CH3]N1CCC[C@H]1COc1cnc(Cl)c(-c2ccnc(F)c2)c1`, the Drug uptake in [1], in data set [2] and in data set [3] was 0.7 each time.
As to `CN1CCC[C@H]1COc1cnc(Cl)c(/C=C/c2ccncc2)c1`, the Ratio Ki in data set [4] amounted to 2.8.
As for `Fc1ncccc1OC[C@@H]1CCN1`, the Ki stood at 3 nM in [5], 180 nM in data set [6], 1.4 nM in [7] and 3700 nM in data set [8].
Turning to `Fc1cc(COc2cc(OC[C@@H]3CCCN3)cnc2Cl)ccn1`, the Ratio Ki in [4] was determined as 2.1; in the data set listed under Rattus norvegicus, 331. The Ki in data set [9] was determined as 0.13 nM; in data set [5], 0.25 nM; in data set [6] it was 8.2 nM; in [11], 1.1 nM; in [7], 0.035 nM; in data set [8], 43 nM. Besides, the logD in data set [10] is reported as 1.4.
As to `[11CH3]N1CCC[C@H]1COc1cnc(Cl)c(OCc2ccc(Cl)nc2)c1`, the Drug uptake in data set [1], in [2] and in data set [3] was 0.7 each time. Besides, the Ratio in data set [12] came to 3.8.
Turning to `CN1CCC[C@@H]1COc1cnc(Cl)c(OCc2ccc(Cl)nc2)c1`, the results for the Ratio Ki (in data set [4]; in the data set listed under Rattus norvegicus) were 18 and 318, respectively. Further, the Ki in data set [9] is 1.1 nM; in data set [5] it was 0.85 nM; in data set [6] it was 22 nM; in data set [11], 7.6 nM; in data set [7], 1.5 nM; in data set [8], 350 nM. Besides, the logD in [10] was 2.2.
As for `CN1CCC[C@H]1COc1cnc(Cl)c(OCc2ccc(Cl)nc2)c1`, the Ratio Ki in data set [4] came out at 0.9; in the data set filed under Rattus norvegicus, 5820. For the same molecule, the inhibition constant Ki in [9] came out at 0.055 nM; in [5] it was 0.26 nM; in data set [6] it was 14 nM; in data set [11] it was 6.6 nM; in [7], 0.031 nM; in data set [8] it was 320 nM.
For `[11CH3]N1CCC[C@H]1COc1cnc(Cl)c(/C=C/c2ccncc2)c1`, the logD in [10] (read-out: logD) was found to be 1.6. The molecule also showed a Ki in data set [13] of 0.028 nM.
Take `CN1CCC[C@H]1COc1cnc(Cl)c(-c2ccnc(F)c2)c1`: the Ratio Ki in data set [4] was determined as 1; in the data set filed under Rattus norvegicus it was 9520. Further, the Ki in [9] was 0.062 nM; in data set [5], 0.71 nM; in data set [6], 27 nM; in [11], 16 nM; in [7], 0.05 nM; in data set [8] it was 590 nM. Also, the logD in data set [10] stood at 1.6.
In the case of `CN1CCC[C@H]1COc1cnc(Cl)c(OCc2ccnc(F)c2)c1`, the Ratio Ki turned out to be 1 in data set [4] and 1450 in the data set filed under Rattus norvegicus. Besides, the inhibition constant (Ki) in data set [9] was 0.062 nM; in data set [5] it was 0.33 nM; in data set [6], 11 nM; in [11], 1.6 nM; in [7], 0.022 nM; in data set [8], 90 nM. Also, in [10], the logD was found to be 1.8.

What is called Ki is a measure of affinity in units of concentration, obtained from inhibition or displacement. The low end stands for a stronger hold on the target, the high end for a looser hold on the target. In general, logD refers to lipophilicity at a set pH, counting ionised and neutral species.
